This data set deals with CCRIS mutagenicity, Ames/micronucleus/aberration tests. Nature of the data set: CCRIS mutagenicity studies.
Where [1] appears, read: Test System: AMES SALMONELLA TYPHIMURIUM, Strain/Indicator: TA100, Metabolic Activation: NONE, Method: PREINCUBATION
Where [2] appears, read: Test System: Ames Salmonella typhimurium, Strain/Indicator: TA98, Metabolic Activation: None, Method: Preincubation.
Setting [3] is: Test System: Ames Salmonella typhimurium, Strain/Indicator: TA100, Metabolic Activation: None, Method: Preincubation.
The mark [4] stands for this setting: Test System: Ames Salmonella typhimurium, Strain/Indicator: TA1535, Metabolic Activation: None, Method: Preincubation.
The mark [5] stands for this setting: Test System: Ames Salmonella typhimurium, Strain/Indicator: TA1537, Metabolic Activation: None, Method: Preincubation.
The mark [6] stands for this setting: Test System: AMES SALMONELLA TYPHIMURIUM, Strain/Indicator: TA98, Metabolic Activation: NONE, Method: STANDARD PLATE.
Where [7] appears, read: Test System: AMES SALMONELLA TYPHIMURIUM, Strain/Indicator: TA100, Metabolic Activation: NONE, Method: STANDARD PLATE.
The mark [8] stands for this setting: Test System: AMES SALMONELLA TYPHIMURIUM, Strain/Indicator: TA98, Metabolic Activation: NONE, Method: PREINCUBATION

The text below walks through data of PubChem BioAssay AID1259407 (Chemical Carcinogenesis Research Information System (CCRIS), 2018).

The source made the active and inactive calls. No rule for the calls is given here.

`NCCS`: the mutagenic call is, setting by setting: (End Point: IN VIVO MICRONUCLEUS, Test System: BONE MARROW POLYCHROMATIC ERYTHROCYTES, Species: MOUSE, Strain/Sex: SWISS/FEMALE, Route: IP) “inactive; negative”; under setting [1], “inactive; negative”; under setting [2], “inactive; negative”; (Test System: Ames Salmonella typhimurium, Strain/Indicator: TA98, Metabolic Activation: Rat, Liver, S9, Sodium phenobarbital and 5,6-benzoflavone (10%), Method: Preincubation) “inactive; negative”; under setting [3], “inactive; negative”; (Test System: Ames Salmonella typhimurium, Strain/Indicator: TA100, Metabolic Activation: Rat, Liver, S9, Sodium phenobarbital and 5,6-benzoflavone (10%), Method: Preincubation) “inactive; negative”. Besides, the mutagenic call by setting is: under setting [4], “inactive; negative”; (Test System: Ames Salmonella typhimurium, Strain/Indicator: TA1535, Metabolic Activation: Rat, Liver, S9, Sodium phenobarbital and 5,6-benzoflavone (10%), Method: Preincubation) “inactive; negative”; under setting [5], “inactive; negative”; (Test System: Ames Salmonella typhimurium, Strain/Indicator: TA1537, Metabolic Activation: Rat, Liver, S9, Sodium phenobarbital and 5,6-benzoflavone (10%), Method: Preincubation) “inactive; negative”; (Test System: E. coli, Strain/Indicator: WP2uvrA/pKM101, Metabolic Activation: Rat, Liver, S9, Sodium phenobarbital and 5,6-benzoflavone (10%), Method: Preincubation) “inactive; negative”.
As for `O=C(O)c1ccc(Cl)cc1Cl`, the mutagenic call reads like this: under setting [2], “inactive; negative. precipitation at highest dose”; (Test System: Ames Salmonella typhimurium, Strain/Indicator: TA98, Metabolic Activation: Rat, Liver, S9, Phenobarbital and 5,6-benzoflavone, Method: Preincubation) “inactive; negative. precipitation at highest dose”; under setting [3], “inactive; negative. precipitation at highest dose”; (Test System: Ames Salmonella typhimurium, Strain/Indicator: TA100, Metabolic Activation: Rat, Liver, S9, Phenobarbital and 5,6-benzoflavone, Method: Preincubation) “inactive; negative. precipitation at highest dose”; under setting [4], “inactive; negative. precipitation at highest dose”; (Test System: Ames Salmonella typhimurium, Strain/Indicator: TA1535, Metabolic Activation: Rat, Liver, S9, Phenobarbital and 5,6-benzoflavone, Method: Preincubation) “inactive; negative. precipitation at highest dose”. The mutagenic call under setting [5] was “inactive; negative. precipitation at highest dose”; the mutagenic call (Test System: Ames Salmonella typhimurium, Strain/Indicator: TA1537, Metabolic Activation: Rat, Liver, S9, Phenobarbital and 5,6-benzoflavone, Method: Preincubation) was “inactive; negative. precipitation at highest dose”; the mutagenic call (Test System: E. coli, Strain/Indicator: WP2uvrA/pKM101, Metabolic Activation: None, Method: Preincubation) was “inactive; negative. precipitation at highest dose”; the mutagenic call (Test System: E. coli, Strain/Indicator: WP2uvrA/pKM101, Metabolic Activation: Rat, Liver, S9, Phenobarbital and 5,6-benzoflavone, Method: Preincubation) was “inactive; negative. precipitation at highest dose”.
Regarding `CC1(C)C[C@@H]2[C@@]34C[C@]3(C(C=O)=C[C@]2(O)C1)[C@@H](O)OC4=O`, the mutagenic call runs as follows: under setting [6], “active; positive”; under setting [7], “active; positive”; (Test System: AMES SALMONELLA TYPHIMURIUM, Strain/Indicator: TA2637, Metabolic Activation: NONE, Method: STANDARD PLATE) “active; positive”.
With `O=C(O)/C(Cl)=C(\CO)C(Cl)Cl`, the mutagenic call is, setting by setting: (Test System: AMES SALMONELLA TYPHIMURIUM, Strain/Indicator: TA97, Metabolic Activation: NONE, Method: STANDARD PLATE) “active; positive”; (Test System: AMES SALMONELLA TYPHIMURIUM, Strain/Indicator: TA97, Metabolic Activation: RAT, LIVER, S-9, PHENOBARBITAL, Method: STANDARD PLATE) “inactive; negative”; under setting [6], “inactive; negative”; (Test System: AMES SALMONELLA TYPHIMURIUM, Strain/Indicator: TA98, Metabolic Activation: RAT, LIVER, S-9, PHENOBARBITAL, Method: STANDARD PLATE) “inactive; negative”; under setting [7], “active; positive”; (Test System: AMES SALMONELLA TYPHIMURIUM, Strain/Indicator: TA100, Metabolic Activation: RAT, LIVER, S-9, PHENOBARBITAL, Method: STANDARD PLATE) “inactive; negative”.
Take `O=S(=O)(O)c1ccc(N=Nc2c(O)c(S(=O)(=O)O)cc3cc(S(=O)(=O)O)ccc23)cc1`: the mutagenic call is “inactive; negative” under setting [8]; “inactive; negative” (Test System: AMES SALMONELLA TYPHIMURIUM, Strain/Indicator: TA98, Metabolic Activation: RAT, LIVER, S-9, PHENOBARBITAL, Method: PREINCUBATION); “inactive; negative” under setting [1]; “inactive; negative” (Test System: AMES SALMONELLA TYPHIMURIUM, Strain/Indicator: TA100, Metabolic Activation: RAT, LIVER, S-9, PHENOBARBITAL, Method: PREINCUBATION).
Take `Cc1ccc2cc3c(ccc4ccccc43)c3c2c1CC3=O`: the mutagenic call (Test System: CHINESE HAMSTER V-79, Strain/Indicator: V-79/8-AZAGUANINE, Metabolic Activation: RAT, LIVER, S-9, AROCLOR 1254, Method: STANDARD PLATE) is “active; positive”.
Consider `C(=C\c1ccccc1)/c1ccccc1`, for which the mutagenic call is “inactive; negative” (Test System: AMES SALMONELLA TYPHIMURIUM, Strain/Indicator: TA98, Metabolic Activation: HAMSTER, LIVER, S-9, AROCLOR 1254, Method: PREINCUBATION); “inactive; negative” under setting [8]; “inactive; negative” (Test System: AMES SALMONELLA TYPHIMURIUM, Strain/Indicator: TA98, Metabolic Activation: RAT, LIVER, S-9, AROCLOR 1254, Method: PREINCUBATION); “inactive; negative” (Test System: AMES SALMONELLA TYPHIMURIUM, Strain/Indicator: TA100, Metabolic Activation: HAMSTER, LIVER, S-9, AROCLOR 1254, Method: PREINCUBATION); “inactive; negative” under setting [1]; “inactive; negative” (Test System: AMES SALMONELLA TYPHIMURIUM, Strain/Indicator: TA100, Metabolic Activation: RAT, LIVER, S-9, AROCLOR 1254, Method: PREINCUBATION). In addition, the mutagenic call reads like this: (Test System: AMES SALMONELLA TYPHIMURIUM, Strain/Indicator: TA1535, Metabolic Activation: HAMSTER, LIVER, S-9, AROCLOR 1254, Method: PREINCUBATION) “inactive; negative”; (Test System: AMES SALMONELLA TYPHIMURIUM, Strain/Indicator: TA1535, Metabolic Activation: NONE, Method: PREINCUBATION) “inactive; negative”; (Test System: AMES SALMONELLA TYPHIMURIUM, Strain/Indicator: TA1535, Metabolic Activation: RAT, LIVER, S-9, AROCLOR 1254, Method: PREINCUBATION) “inactive; negative”; (Test System: AMES SALMONELLA TYPHIMURIUM, Strain/Indicator: TA1537, Metabolic Activation: HAMSTER, LIVER, S-9, AROCLOR 1254, Method: PREINCUBATION) “inactive; negative”; (Test System: AMES SALMONELLA TYPHIMURIUM, Strain/Indicator: TA1537, Metabolic Activation: NONE, Method: PREINCUBATION) “inactive; negative”; (Test System: AMES SALMONELLA TYPHIMURIUM, Strain/Indicator: TA1537, Metabolic Activation: RAT, LIVER, S-9, AROCLOR 1254, Method: PREINCUBATION) “inactive; negative”.
